Test results reported in patent publication US5631146A, “DNA aptamers and catalysts that bind adenosine or adenosine-5'-phosphates and methods for isolation thereof” (The General Hospital Corporation, priority 1995, dated 1997).

Tests used:
[1] = tested on: adenosine/ATP-binding single-stranded DNA aptamer (minimal ATP aptamer DH25.42, SEQ ID NO:46); experiment: ATP analog elution of bound aptamer from ATP-agarose column; conditions: 3 column volumes of 1.5 mM analog
Protocol: FIG. 9A-C are graphs of exemplary elution profiles with analogs of ATP. DNA was loaded onto an ATP-agarose affinity column and washed with 10 column volumes of wash buffer. Bound DNA was then eluted with 3 column volumes of wash buffer containing 1.5 mM analog, then washed with 2 more column volumes of wash buffer; remaining DNA was then eluted in 3 column volumes of wash buffer containing 1.5 mM ATP. Data point at column volume 19 is that remaining on the column after all washes. Elution profiles with 9A. adenosine, 9B. 3-methyl adenine, and 9C. purine riboside.
FIG. 10 is a schematic diagram showing the specifity of the adenosine/ATP aptamer, as determined by analog elution experiments. ++, 85-100% of DNA eluted in 3 column volumes of 1.5 mM ligand; +, 70-84% of DNA eluted in 3 column volumes of 1.5 mM ligand; +/-, 6%-69% of DNA eluted in 3 column volumes of 1.5 mM ligand; -, <5% of DNA eluted in 3 column volumes of 1.5 mM ligand. The regions most important for binding are highlighted by the shaded boxes. […]
10-500 ng (1.2 pmol-60 pmol) of affinity purified DNA was loaded onto a 1/4 ml bed volume ATP-agarose column pre-equilibrated with column buffer. […] Each fraction was then analyzed by Cerenkov counting. […]

[2] = target: adenosine/ATP-binding single-stranded DNA aptamer (minimal ATP aptamer DH25.42, SEQ ID NO:46); experiment: Kd for adenosine by analytical ultrafiltration; conditions: room temperature, column buffer (300 mM NaCl, 5 mM MgCl2, 20 mM Tris pH 7.6), 5.49 nM [3H]adenosine, average of two estimates, read-out: Kd for adenosine in solution
Protocol: Although quantitative binding data from column elution experiments is imprecise, an estimate of adenosine affinity in solution was obtained by ultrafiltration experiments (Jenison et al., Science 263:1425-1429, (1994)).
The Kd for adenosine was measured by analytical ultrafiltration (Jenison et al., Science 263:1425-1429, (1994)). In this technique bound and unbound ligand partition across a membrane in a ultra filtration device. DNA (0.06 μM-30 μM) was incubated for 5 min. at room temperature in 200 μl of column buffer containing 5.49 nM [2,8,5'^3H] adenosine. The reaction mixture was loaded onto an Microcon 10 microconcentrator (Amicon) and spun at 14000 RPM in an Eppendorf 5415 centrifuge for 4 min., resulting in 100 μl of ultrafiltrate. This method could not be used with ATP because only 30% of ATP passed through the filter in 50% of the volume. Even with adenosine, only 40-45% passed through in 50% of the volume. The Kd was estimated from the concentration of DNA calculated to decrease the amount of adenosine passing through the filter by 50%. During the course of the experiment the DNA concentration increases by a factor of two since the DNA is retained above the filter; therefore, using the initial DNA concentration would give an artificially low Kd, and using the final DNA concentration would give an artificially high Kd. The Kd reported is the average of these two estimates. […]

Row | Structure (SMILES) | elution of bound aptamer from the ATP-agarose column by analog [1] | Kd [2] [µM]
1 | Nc1ncnc2c1ncn2[C@H]1O[C@H](CO)[C@@H](O)[C@H]1O [9-α-ribofuranosyladenine] | did not elute bound aptamer | –
2 | Nc1ncnc2c1ncn2[C@@H]1O[C@H](CO)[C@@H](O)[C@H]1O [adenosine] | – | 6 ± 3
